Experimental data from patent US12668600B2 (Kumquat Biosciences Inc., priority 2023, dated 2026).

Tests used:
Assay type in all cases: biochemical
KRAS G12S = molecular target: T1, KRAS G12S (Homo sapiens, UniProt P01116, G12S); experiment: HTRF KRAS-SOS1 interaction assay, KRAS G12S; conditions: binned ≤2 μM / >2 μM, read-out: Inhibition of KRAS G12S (IC50)
T1 construct: made in house; host or cells: E. coli, e.g. BL21 (DE3)
In short: (§1)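 Inhibition of the KRAS–SOS1 interaction was measured by HTRF (ex 337, em 620/665 nm) after ≥~10 min incubation. Donor: anti-GST-Eu on GST-KRAS; acceptor: anti-6His-XL665 on His-hSOS1, in HEPES pH 7.4 buffer with DTT, BSA and Igepal. Compounds in duplicate at 0.01–10 μM; IC50 from emission ratio.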

KRAS G12D = molecular target: T2, KRAS G12D (Homo sapiens, UniProt P01116, G12D); experiment: HTRF KRAS-SOS1 interaction assay, KRAS G12D; conditions: binned ≤2 μM / >2 μM, read-out: Inhibition of KRAS G12D (IC50)
T2 construct: made in house; host or cells: E. coli, e.g. BL21 (DE3)
T2 sequence (P01116 1-188 isoform P01116-2 G12D): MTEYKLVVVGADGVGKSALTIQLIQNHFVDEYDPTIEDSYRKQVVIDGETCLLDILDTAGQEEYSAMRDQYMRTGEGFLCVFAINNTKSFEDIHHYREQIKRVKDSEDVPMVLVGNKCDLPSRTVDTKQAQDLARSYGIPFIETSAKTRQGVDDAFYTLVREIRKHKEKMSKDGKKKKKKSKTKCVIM
In short: as §1

KRAS WT = molecular target: T3, KRAS WT (Homo sapiens, UniProt P01116); experiment: HTRF KRAS-SOS1 interaction assay, wildtype KRAS; conditions: binned ≤2 μM / >2 μM, read-out: Inhibition of KRAS WT (IC50)
T3 construct: made in house; host or cells: E. coli, e.g. BL21 (DE3)
T3 sequence (P01116 1-188 isoform P01116-2): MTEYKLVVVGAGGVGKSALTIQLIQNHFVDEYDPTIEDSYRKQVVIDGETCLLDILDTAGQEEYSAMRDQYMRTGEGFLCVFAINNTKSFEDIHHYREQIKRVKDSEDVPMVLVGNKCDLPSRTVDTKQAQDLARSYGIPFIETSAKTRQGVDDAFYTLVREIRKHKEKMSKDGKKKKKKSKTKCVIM
In short: as §1

KRAS G12V = molecular target: T4, KRAS G12V (Homo sapiens, UniProt P01116, G12V); experiment: HTRF KRAS-SOS1 interaction assay, KRAS G12V; conditions: binned ≤2 μM / >2 μM, read-out: Inhibition of KRAS G12V (IC50)
T4 construct: made in house; host or cells: E. coli, e.g. BL21 (DE3)
T4 sequence (P01116 1-188 isoform P01116-2 G12V): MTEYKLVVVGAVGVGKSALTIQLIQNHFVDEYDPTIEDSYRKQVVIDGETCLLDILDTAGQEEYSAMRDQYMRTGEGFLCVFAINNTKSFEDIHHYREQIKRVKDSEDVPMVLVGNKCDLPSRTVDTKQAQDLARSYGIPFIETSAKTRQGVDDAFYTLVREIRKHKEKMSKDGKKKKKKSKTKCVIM
In short: as §1

T1 sequence (P01116 1-188 isoform P01116-2 G12S): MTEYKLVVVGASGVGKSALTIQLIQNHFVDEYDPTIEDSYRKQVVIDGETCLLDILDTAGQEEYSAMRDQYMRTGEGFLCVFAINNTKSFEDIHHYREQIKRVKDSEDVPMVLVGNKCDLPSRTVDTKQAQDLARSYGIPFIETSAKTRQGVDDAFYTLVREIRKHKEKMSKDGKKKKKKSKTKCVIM

Row | IC50 (KRAS G12S) | IC50 (KRAS G12D) | IC50 (KRAS WT) | IC50 (KRAS G12V) | SMILES
1 | ≤ 2000 nM | ≤ 2000 nM | ≤ 2000 nM | ≤ 2000 nM | C/C=C/[C@H](c1cccnc1N)N1CCOc2c(Cl)c(-c3ccc(F)c4sc(N)c(C#N)c34)c(F)c3nc(OC[C@@]45CCCN4C[C@H](F)C5)nc1c23 (mixture of isomers) [Compound 756, 2-amino-4-(4-((R,E)-1-(2-aminopyridin-3-yl)but-2-en-1-yl)-8-chloro-10-fluoro-2-(((2R,7aS)-2-fluorotetrahydro-1H-pyrrolizin-7a(5H)-yl)methoxy)-5,6-dihydro-4H-[1,4]oxazepino[5,6,7-de]quinazolin-9-yl)-7-fluorobenzo[b]thiophene-3-carbonitrile]
2 | ≤ 2000 nM | ≤ 2000 nM | ≤ 2000 nM | ≤ 2000 nM | N#Cc1c(N)sc2c(F)ccc(-c3c(Cl)c4c5c(nc(OC[C@@]67CCCN6C[C@H](F)C7)nc5c3F)N([C@H](C/C=C\C(F)(F)F)c3cccnc3N)CCO4)c12 [Compound 845, 2-amino-4-(4-((R,Z)-1-(2-aminopyridin-3-yl)-5,5,5-trifluoropent-3-en-1-yl)-8-chloro-10-fluoro-2-(((2R,7aS)-2-fluorotetrahydro-1H-pyrrolizin-7a(5H)-yl)methoxy)-5,6-dihydro-4H-[1,4]oxazepino[5,6,7-de]quinazolin-9-yl)-7-fluorobenzo[b]thiophene-3-carbonitrile]
3 | ≤ 2000 nM | ≤ 2000 nM | ≤ 2000 nM | ≤ 2000 nM | Cc1c(F)c(N)cc(-c2nc3c4c(nc(OC[C@@H]5CCCN5C)nc4c2F)N([C@H](C)c2cccnc2N)CCO3)c1C(F)(F)F (single isomer, unassigned) [Compound 695]
4 | ≤ 2000 nM | ≤ 2000 nM | ≤ 2000 nM | ≤ 2000 nM | N#Cc1c(N)sc2c(F)ccc(-c3c(C(F)(F)F)c4c5c(nc(OC[C@@]67CCCN6C[C@H](F)C7)nc5c3F)N([C@H](CCC3CC3)c3cccnc3N)CCO4)c12 (single isomer, unassigned) [Compound 877]
5 | ≤ 2000 nM | ≤ 2000 nM | ≤ 2000 nM | ≤ 2000 nM | CN(C)CCC[C@H](c1cccnc1N)N1CCOc2c(C(F)(F)F)c(-c3ccc(F)c4sc(N)c(C#N)c34)c(F)c3nc(OC[C@@]45CCCN4C[C@H](F)C5)nc1c23 (single isomer, unassigned) [Compound 705]
6 | ≤ 2000 nM | ≤ 2000 nM | ≤ 2000 nM | ≤ 2000 nM | C#Cc1c(F)ccc2cc(O)cc(-c3nc4c5c(nc(O[C@@H](C)[C@@H]6CCCN6C)nc5c3F)N([C@H](C)c3cccnc3N)CCO4)c12 (single isomer, unassigned) [Compound 779]
7 | ≤ 2000 nM | ≤ 2000 nM | ≤ 2000 nM | ≤ 2000 nM | CCO/N=C/C1CN2CCC[C@@]2(COc2nc3c4c(c(Cl)c(-c5ccc(F)c6sc(N)c(C#N)c56)c(F)c4n2)OCCN3[C@H](C)c2cccnc2N)C1 (mixture of isomers) [Compound 711, 2-amino-4-(4-((R)-1-(2-aminopyridin-3-yl)ethyl)-8-chloro-2-(((7aS)-2-((E)-(ethoxyimino)methyl)tetrahydro-1H-pyrrolizin-7a(5H)-yl)methoxy)-10-fluoro-5,6-dihydro-4H-[1,4]oxazepino[5,6,7-de]quinazolin-9-yl)-7-fluorobenzo[b]thiophene-3-carbonitrile]
8 | ≤ 2000 nM | ≤ 2000 nM | ≤ 2000 nM | ≤ 2000 nM | N#Cc1c(N)sc2cccc(-c3c(Cl)c4c5c(nc(OC[C@@]67CCCN6C[C@H](F)C7)nc5c3F)N([C@@H](c3cccnc3N)C(F)F)CCO4)c12 (single isomer, unassigned) [Compound 672]
9 | ≤ 2000 nM | ≤ 2000 nM | ≤ 2000 nM | ≤ 2000 nM | C[C@H](c1cc(C(F)(F)F)cnc1N)N1CCOc2c(Cl)c(-c3ccc(F)c4sc(N)c(C#N)c34)c(F)c3nc(OC[C@@]45CCCN4C[C@H](F)C5)nc1c23 [Compound 869, 2-amino-4-(4-((R)-1-(2-amino-5-(trifluoromethyl)pyridin-3-yl)ethyl)-8-chloro-10-fluoro-2-(((2R,7aS)-2-fluorotetrahydro-1H-pyrrolizin-7a(5H)-yl)methoxy)-5,6-dihydro-4H-[1,4]oxazepino[5,6,7-de]quinazolin-9-yl)-7-fluorobenzo[b]thiophene-3-carbonitrile]
10 | ≤ 2000 nM | ≤ 2000 nM | ≤ 2000 nM | ≤ 2000 nM | N#Cc1c(N)sc2c(F)ccc(-c3c(C(F)(F)F)c4c5c(nc(OCC6(CN7CCC8(CC7)CC8(F)F)CC6)nc5c3F)N([C@H](CCC3CCOCC3)c3cccnc3N)CCO4)c12 [Compound 907, 2-amino-4-(4-((R)-1-(2-aminopyridin-3-yl)-3-(tetrahydro-2H-pyran-4-yl)propyl)-2-((1-((1,1-difluoro-6-azaspiro[2.5]octan-6-yl)methyl)cyclopropyl)methoxy)-10-fluoro-8-(trifluoromethyl)-5,6-dihydro-4H-[1,4]oxazepino[5,6,7-de]quinazolin-9-yl)-7-fluorobenzo[b]thiophene-3-carbonitrile]
11 | ≤ 2000 nM | ≤ 2000 nM | ≤ 2000 nM | ≤ 2000 nM | Cc1c(F)c(N)cc(-c2nc3c4c(nc(O[C@@H](C)[C@@H]5CCCN5C)nc4c2F)N([C@H](C)c2cccnc2N)C[C@H](C)O3)c1C(F)(F)F (single isomer, unassigned) [Compound 816]
12 | ≤ 2000 nM | ≤ 2000 nM | ≤ 2000 nM | ≤ 2000 nM | CC(c1cccnc1N)N1c2nc(OC[C@@]34CCCN3C[C@H](F)C4)nc3c(F)c(-c4ccc(F)c5sc(N)c(C#N)c45)c(Cl)c(c23)OC[C@@H]1C(F)F (mixture of isomers) [Compound 790, 2-amino-4-((5R)-4-(1-(2-aminopyridin-3-yl)ethyl)-8-chloro-5-(difluoromethyl)-10-fluoro-2-(((2R,7aS)-2-fluorotetrahydro-1H-pyrrolizin-7a(5H)-yl)methoxy)-5,6-dihydro-4H-[1,4]oxazepino[5,6,7-de]quinazolin-9-yl)-7-fluorobenzo[b]thiophene-3-carbonitrile]
13 | ≤ 2000 nM | ≤ 2000 nM | ≤ 2000 nM | ≤ 2000 nM | CC[S+]([O-])[C@@H]1C[C@]2(COc3nc4c5c(c(Cl)c(-c6ccc(F)c7sc(N)c(C#N)c67)c(F)c5n3)OCCN4[C@H](C)c3cccnc3N)CCC[N+]2([O-])C1 (mixture of isomers) [Compound 626, (2R,7aS)-7a-(((9-(2-amino-3-cyano-7-fluorobenzo[b]thiophen-4-yl)-4-((R)-1-(2-aminopyridin-3-yl)ethyl)-8-chloro-10-fluoro-5,6-dihydro-4H-[1,4]oxazepino[5,6,7-de]quinazolin-2-yl)oxy)methyl)-2-(ethylsulfinyl)hexahydropyrrolizine 4(1H)-oxide]
14 | ≤ 2000 nM | ≤ 2000 nM | ≤ 2000 nM | ≤ 2000 nM | C=C1CN2CCC[C@@]2(COc2nc3c4c(c(C(F)(F)F)c(-c5ccc(F)c6sc(N)c(C#N)c56)c(F)c4n2)OCCN3[C@H](C)c2cccnc2N)C1 [Compound 621, 2-amino-4-(4-((R)-1-(2-aminopyridin-3-yl)ethyl)-10-fluoro-2-(((S)-2-methylenetetrahydro-1H-pyrrolizin-7a(5H)-yl)methoxy)-8-(trifluoromethyl)-5,6-dihydro-4H-[1,4]oxazepino[5,6,7-de]quinazolin-9-yl)-7-fluorobenzo[b]thiophene-3-carbonitrile]
15 | ≤ 2000 nM | ≤ 2000 nM | ≤ 2000 nM | ≤ 2000 nM | C=C[C@H]1COc2c(Cl)c(-c3ccc(F)c4sc(N)c(C#N)c34)c(F)c3nc(OC[C@@]45CCCN4C[C@H](F)C5)nc(c23)N1C(C)c1cccnc1N (single isomer, unassigned) [Compound 732]
16 | ≤ 2000 nM | ≤ 2000 nM | ≤ 2000 nM | ≤ 2000 nM | N#Cc1c(N)sc2c(F)ccc(-c3c(Cl)c4c5c(nc(OC[C@@]67CCCN6C[C@H](F)C7)nc5c3F)N([C@H](/C=C/C(F)F)c3cccnc3N)CCO4)c12 [Compound 731, 2-amino-4-(4-((R,E)-1-(2-aminopyridin-3-yl)-4,4-difluorobut-2-en-1-yl)-8-chloro-10-fluoro-2-(((2R,7aS)-2-fluorotetrahydro-1H-pyrrolizin-7a(5H)-yl)methoxy)-5,6-dihydro-4H-[1,4]oxazepino[5,6,7-de]quinazolin-9-yl)-7-fluorobenzo[b]thiophene-3-carbonitrile]
17 | ≤ 2000 nM | ≤ 2000 nM | ≤ 2000 nM | ≤ 2000 nM | C[C@H](c1cccnc1N)N1CCOc2c(C(F)(F)F)c(-c3ccc(F)c4sc(N)c(C#N)c34)c(F)c3nc(OCC4(CN5CCC(=CF)CC5)CC4)nc1c23 [Compound 814, 2-amino-4-(4-((R)-1-(2-aminopyridin-3-yl)ethyl)-10-fluoro-2-((1-((4-(fluoromethylene)piperidin-1-yl)methyl)cyclopropyl)methoxy)-8-(trifluoromethyl)-5,6-dihydro-4H-[1,4]oxazepino[5,6,7-de]quinazolin-9-yl)-7-fluorobenzo[b]thiophene-3-carbonitrile]
18 | ≤ 2000 nM | ≤ 2000 nM | ≤ 2000 nM | ≤ 2000 nM | CCN(CC)CCC[C@H](c1cccnc1N)N1CCOc2c(C(F)(F)F)c(-c3ccc(F)c4sc(N)c(C#N)c34)c(F)c3nc(OC[C@@]45CCCN4C[C@H](F)C5)nc1c23 (single isomer, unassigned) [Compound 806]
